Consider 22 compounds from PubChem BioAssay AID328 (DTP/NCI, 2004).

This experiment concerns BDF1 mice, P388 leukemia ip, median survival T/C. The experiment can be described thus: NCI In Vivo Anticancer Drug Screen. Data for tumor model P388 Leukemia (intraperitoneal) in B6D2F1 (BDF1) mice. The conditions noted are these: endpoint: median survival time, higher = longer survival. The method, boiled down: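 Compound-treated tumour-bearing mice were compared with vehicle-treated controls. Survival was recorded, and the value is the treated-group measurement divided by the control-group measurement (T/C).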

The mark [1] stands for this setting: dose: 100.0 mg/kg/injection, schedule: Q04DX003 (ip), vehicle: saline with Tween-80.
Setting [2] is: dose: 200.0 mg/kg/injection, schedule: Q04DX003 (ip), vehicle: saline with Tween-80.
The mark [3] stands for this setting: dose: 400.0 mg/kg/injection, schedule: Q04DX003 (ip), vehicle: saline with Tween-80.
The mark [4] stands for this setting: dose: 50.0 mg/kg/injection, schedule: Q01DX005 (ip), vehicle: saline with Tween-80.
[5] abbreviates: dose: 100.0 mg/kg/injection, schedule: Q01DX005 (ip), vehicle: saline with Tween-80.
Setting [6] is: dose: 200.0 mg/kg/injection, schedule: Q01DX005 (ip), vehicle: saline with Tween-80.
[7] abbreviates: dose: 25.0 mg/kg/injection, schedule: Q01DX009 (ip), vehicle: saline with Tween-80.
[8] abbreviates: dose: 50.0 mg/kg/injection, schedule: Q01DX009 (ip), vehicle: saline with Tween-80.
Setting [9] is: dose: 100.0 mg/kg/injection, schedule: Q01DX009 (ip), vehicle: saline with Tween-80.
The mark [10] stands for this setting: dose: 12.5 mg/kg/injection, schedule: Q01DX009 (ip), vehicle: saline with Tween-80.
Setting [11] is: dose: 200.0 mg/kg/injection, schedule: Q01DX009 (ip), vehicle: saline with Tween-80.

Each structure is given as a SMILES string. Values joined by “and” are separate entries in the source; they are usually repeats but may differ in a detail not shown here. Equal values may be shown once. Toxic doses and inconclusive results are not listed.

Consider `CC1CC[N-]CC1.CC1CC[N-]CC1.CC1CC[N-]CC1.CC1CC[N-]CC1.[Pt+4]`, for which the T/C is, setting by setting: (dose: 0.09 mg/kg/injection, schedule: Q01DX009 (ip), vehicle: saline) 88 % of control; (dose: 0.19 mg/kg/injection, schedule: Q01DX009 (ip), vehicle: saline) 93 % of control; (dose: 0.23 mg/kg/injection, schedule: Q01DX009 (ip), vehicle: saline) 88 % of control; (dose: 0.25 mg/kg/injection, schedule: Q01DX009 (ip), vehicle: saline) 102 % of control; (dose: 0.39 mg/kg/injection, schedule: Q01DX009 (ip), vehicle: saline) 92 % of control; (dose: 0.5 mg/kg/injection, schedule: Q01DX009 (ip), vehicle: saline) 102 % of control. Also, the T/C by setting is: (dose: 0.65 mg/kg/injection, schedule: Q01DX009 (ip), vehicle: saline) 92 % of control; (dose: 0.78 mg/kg/injection, schedule: Q01DX009 (ip), vehicle: saline) 88 % of control and 105 % of control; (dose: 1.0 mg/kg/injection, schedule: Q01DX009 (ip), vehicle: saline) 112 % of control; (dose: 1.56 mg/kg/injection, schedule: Q01DX009 (ip), vehicle: saline) 90 % of control; (dose: 1.56 mg/kg/injection, schedule: Q04DX003 (ip), vehicle: saline) 109 % of control; (dose: 2.0 mg/kg/injection, schedule: Q01DX009 (ip), vehicle: saline) 103 % of control. Moreover, the T/C (dose: 3.12 mg/kg/injection, schedule: Q04DX003 (ip), vehicle: saline) was 95 % of control.
Turning to `Cc1ccc(NC(=O)c2ccccc2C(=O)O)c(C)c1`, the T/C was 100 % of control under setting [1], 100 % of control under setting [2] and 118 % of control under setting [3].
Consider `CC1(C)OC2(C)CCC1C(O)C2N1CCOCC1` (stereo not drawn), for which the T/C by setting is: under setting [4], 106 % of control; under setting [5], 106 % of control; under setting [6], 101 % of control.
On to `C=C(C)C(=O)NCC(=O)NC(Cc1ccccc1)C(=O)Oc1ccc([N+](=O)[O-])cc1` (stereo not drawn), for which the T/C is 97 % of control under setting [7], 101 % of control under setting [8] and 99 % of control under setting [9].
Turning to `ClCCN(CCCl)c1ccc(C=Nc2ccc(/C=C\c3ccncc3)cc2)cc1`, the T/C by setting is: under setting [10], 115 % of control; under setting [7], 101 % of control; under setting [8], 98 % of control; under setting [9], 89 % of control.
In the case of `CSc1c(C)[nH]c2ccc([N+](=O)[O-])cc12`, the T/C was 95 % of control (dose: 25.0 mg/kg/injection, schedule: Q01DX001 (ip), vehicle: saline with Tween-80); 111 % of control (dose: 50.0 mg/kg/injection, schedule: Q01DX001 (ip), vehicle: saline with Tween-80); 100 % of control (dose: 100.0 mg/kg/injection, schedule: Q01DX001 (ip), vehicle: saline with Tween-80).
Consider `CC(C)C(=O)[O][Sn]([c]1ccccc1)([c]1ccccc1)[c]1ccccc1`, for which the T/C under setting [10] is 123 % of control.
With `CC1=CC(=NC(=O)CBr)C=C/C1=N\S(=O)(=O)c1ccccc1`, the T/C (dose: 6.25 mg/kg/injection, schedule: Q01DX009 (ip), vehicle: saline with Tween-80) is 113 % of control; the T/C under setting [10] was 111 % of control; the T/C under setting [7] is 106 % of control.
In the case of `C=C1C(=O)OC2/C=C(\C)C3(O)C=CC(C)(CC(OC(=O)C(C)C)C12)O3` (stereo not drawn), the T/C (dose: 10.0 mg/kg/injection, schedule: Q01DX009 (ip), vehicle: saline) was 103 % of control; the T/C (dose: 12.5 mg/kg/injection, schedule: Q01DX009 (ip), vehicle: other) was 161 % of control; the T/C (dose: 25.0 mg/kg/injection, schedule: Q01DX009 (ip), vehicle: other) was 155 % of control; the T/C (dose: 40.0 mg/kg/injection, schedule: Q01DX009 (ip), vehicle: saline) is 100 % of control; the T/C (dose: 50.0 mg/kg/injection, schedule: Q01DX009 (ip), vehicle: other) was 161 % of control.
In the case of `CCCCSCc1nc2nc(Cl)c(Cl)nc2[nH]1`, the T/C is 110 % of control under setting [8]; 108 % of control under setting [9]; 109 % of control under setting [1]; 91 % of control under setting [11]; 95 % of control under setting [2]; 94 % of control (dose: 400.0 mg/kg/injection, schedule: Q01DX009 (ip), vehicle: saline with Tween-80). For the same compound, the T/C under setting [3] is 95 % of control.
For the compound `CCCCCCCCCCCCOc1ccccc1`, the T/C is, setting by setting: (dose: 50.0 mg/kg/injection, schedule: Q04DX003 (ip), vehicle: saline with Tween-80) 100 % of control; under setting [1], 109 % of control; under setting [2], 100 % of control.
`CC(C)CCOC(=O)C(Br)c1ccccc1` (stereo not drawn): the T/C (dose: 44.0 mg/kg/injection, schedule: Q01DX009 (ip), vehicle: saline with Tween-80) was 110 % of control; the T/C (dose: 66.0 mg/kg/injection, schedule: Q01DX009 (ip), vehicle: saline with Tween-80) was 107 % of control; the T/C under setting [1] was 108 % of control; the T/C (dose: 150.0 mg/kg/injection, schedule: Q01DX009 (ip), vehicle: saline with Tween-80) is 115 % of control; the T/C under setting [2] is 116 % of control; the T/C under setting [3] was 104 % of control.
As for `CN(N=O)c1ccc(/C=C/c2ccnc3ccccc23)cc1`, the T/C (dose: 100.0 mg/kg/injection, schedule: Q01DX009 (ip), vehicle: saline sonified) is 115 % of control.
Take `CCOC(=O)C1(C(C)C)OC2(O)CCCCCN2C1=O` (stereo not drawn): the T/C reads like this: under setting [8], 95 % of control; under setting [9], 109 % of control; under setting [11], 104 % of control.
On to `Cc1c(N)cccc1N`, for which the T/C was 96 % of control under setting [10] and 123 % of control under setting [7].
In the case of `O=C(Nc1ccc(NC(=O)Nc2cccc(C3=NCCN3)c2)cc1)Nc1cccc(C2=NCCN2)c1`, the T/C was 165 % of control and 190 % of control (dose: 60.0 mg/kg/injection, schedule: Q01DX010 (ip), vehicle: saline); 160 % of control and 175 % of control (dose: 120.0 mg/kg/injection, schedule: Q01DX010 (ip), vehicle: saline); 175 % of control and 190 % of control (dose: 240.0 mg/kg/injection, schedule: Q01DX010 (ip), vehicle: saline); 250 % of control and 300 % of control (dose: 480.0 mg/kg/injection, schedule: Q01DX010 (ip), vehicle: saline).
On to `O=C(CN1CCCCC1)Nc1ccc(Br)cc1`, for which the T/C reads like this: under setting [8], 96 % of control; under setting [9], 104 % of control; under setting [11], 112 % of control.
As to `O=[N+]([O-])c1ccc(Nc2ccc(Cl)c(Cl)c2)c2c1no[n+]2[O-]`, the T/C runs as follows: (dose: 17.5 mg/kg/injection, schedule: Q01DX009 (ip), vehicle: saline with Tween-80) 88 % of control; (dose: 35.0 mg/kg/injection, schedule: Q01DX009 (ip), vehicle: saline with Tween-80) 92 % of control; (dose: 70.0 mg/kg/injection, schedule: Q01DX009 (ip), vehicle: saline with Tween-80) 88 % of control.
As for `O=C(C(=O)C(Br)Br)C(Br)Br`, under “dose: 6.25 mg/kg/injection, schedule: Q01DX009 (ip), vehicle: DMSO”, the T/C was 97 % of control.
For the compound `CS(=O)(=O)c1nnc(-c2ccccc2)s1`, the T/C reads like this: (dose: 100.0 mg/kg/injection, schedule: Q01DX009 (ip), vehicle: Klucel (hydroxypropylcellulose) (HPC)) 94 % of control; (dose: 200.0 mg/kg/injection, schedule: Q01DX009 (ip), vehicle: Klucel (hydroxypropylcellulose) (HPC)) 100 % of control; (dose: 400.0 mg/kg/injection, schedule: Q01DX009 (ip), vehicle: Klucel (hydroxypropylcellulose) (HPC)) 103 % of control.
In the case of `CC(C)(C)OC(=O)NC(CC(Cc1ccccc1)C(N)=O)C(=O)N1CCCC1C(=O)OCc1ccccc1` (stereo not drawn), the T/C is, setting by setting: under setting [4], 102 % of control; under setting [5], 95 % of control; under setting [6], 98 % of control.
As to `CCCCC1(CC)COC(C)(Cc2ccccc2)OC1` (stereo not drawn), the T/C is 100 % of control (dose: 100.0 mg/kg/injection, schedule: Q01DX009 (ip), vehicle: saline); 104 % of control (dose: 100.0 mg/kg/injection, schedule: Q04DX003 (ip), vehicle: saline); 100 % of control (dose: 200.0 mg/kg/injection, schedule: Q01DX009 (ip), vehicle: saline); 100 % of control (dose: 200.0 mg/kg/injection, schedule: Q04DX003 (ip), vehicle: saline); 90 % of control (dose: 400.0 mg/kg/injection, schedule: Q01DX009 (ip), vehicle: saline); 104 % of control (dose: 400.0 mg/kg/injection, schedule: Q04DX003 (ip), vehicle: saline).
